Source: ChEMBL document CHEMBL1201862, “PubChem BioAssay data set” (2004)
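Method: 48-hour compound exposure of cells in 96-well plates, five concentrations, linear interpolation of endpoints. Abbreviation: GI50, concentration required for 50% inhibition of growth.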 Active and inactive are the calls of the source. No stated cut-off is given here; in the data, active = GI50 up to about 1.1 µM and inactive = higher.

Columns and labels:
Assay in all cases: growth of human tumour cells (NCI), 48 h
[1] = tested on: PC-3
[2] = tested on: SK-MEL-28
[3] = tested on: NCI-H226
[4] = tested on: CCRF-CEM
[5] = tested on: A549
[6] = tested on: SF-268
[7] = tested on: MDA-N
[8] = tested on: MDA-MB-435
[9] = tested on: NCI/ADR-RES
[10] = tested on: NCI-H23
[11] = tested on: TK-10
[12] = tested on: SN12C
[13] = tested on: OVCAR-3
[14] = tested on: SR
[15] = tested on: HL-60
[16] = tested on: UACC-62
[17] = tested on: SNB-19
[18] = tested on: ACHN
[19] = tested on: M14
[20] = tested on: SW-620
[21] = tested on: SK-MEL-2
[22] = tested on: NCI-H522
[23] = tested on: SF-295
[24] = tested on: A498
[25] = tested on: SK-MEL-5
[26] = tested on: SNB-75
[27] = tested on: MCF7
[28] = tested on: MDA-MB-231
[29] = tested on: BT-549
[30] = tested on: 786-0
[31] = tested on: KM12
[32] = tested on: U-251
[33] = tested on: HCT-15
[34] = tested on: RPMI-8226
[35] = tested on: COLO 205
[36] = tested on: OVCAR-8
[37] = tested on: K562
[38] = tested on: T47D
[39] = tested on: UACC-257
[40] = tested on: HCC 2998
[41] = tested on: OVCAR-5
[42] = tested on: Malme-3M
[43] = tested on: UO-31
[44] = tested on: IGROV-1
[45] = tested on: CAKI-1
[46] = tested on: RXF 393
[47] = tested on: OVCAR-4
[48] = tested on: DU-145
[49] = tested on: LOX IMVI
[50] = tested on: EKVX
[51] = tested on: MOLT-4
[52] = tested on: HCT-116
[53] = tested on: Hs-578T
[54] = tested on: NCI-H460
[55] = tested on: HOP-62
[56] = tested on: HT-29
[57] = tested on: SK-OV-3

CC(=O)c1cccn1/C=C(\OC(=O)OC(C)(C)C)c1ccc[nH]1
GI50 [1]: 49.1 µM (inactive) | GI50 [2]: 96.6 µM (inactive) | GI50 [3]: 33.2 µM (inactive) | GI50 [4]: 39.8 µM (inactive) | GI50 [5]: 60 µM (inactive) | GI50 [6]: 77.3 µM (inactive) | GI50 [7]: 81.8 µM (inactive) | GI50 [8]: > 100 µM (inactive) | GI50 [9]: 50.2 µM (inactive) | GI50 [10]: 69.8 µM (inactive) | GI50 [11]: > 100 µM (inactive) | GI50 [12]: 96.8 µM (inactive) | GI50 [13]: 46.6 µM (inactive) | GI50 [14]: 31 µM (inactive) | GI50 [15]: 31 µM (inactive) | GI50 [16]: 99.1 µM (inactive) | GI50 [17]: 46.7 µM (inactive) | GI50 [18]: > 100 µM (inactive) | GI50 [19]: 76.4 µM (inactive) | GI50 [20]: 83.9 µM (inactive) | GI50 [21]: > 100 µM (inactive) | GI50 [22]: 57 µM (inactive) | GI50 [23]: 39.4 µM (inactive) | GI50 [24]: 34.8 µM (inactive) | GI50 [25]: 40.3 µM (inactive) | GI50 [26]: 8.24 µM (inactive) | GI50 [27]: 76.4 µM (inactive) | GI50 [28]: 73.8 µM (inactive) | GI50 [29]: 60.7 µM (inactive) | GI50 [30]: > 100 µM (inactive) | GI50 [31]: 46.3 µM (inactive) | GI50 [32]: 64.4 µM (inactive) | GI50 [33]: 55.5 µM | GI50 [34]: 59 µM (inactive) | GI50 [35]: 89.7 µM (inactive) | GI50 [36]: 99.5 µM (inactive) | GI50 [37]: 59.6 µM (inactive) | GI50 [38]: 33 µM (inactive) | GI50 [39]: > 100 µM (inactive) | GI50 [40]: > 100 µM (inactive) | GI50 [41]: 51.2 µM (inactive) | GI50 [42]: > 100 µM (inactive) | GI50 [43]: 36.9 µM (inactive) | GI50 [44]: 40.6 µM (inactive) | GI50 [45]: 22 µM (inactive) | GI50 [46]: 33.8 µM (inactive) | GI50 [47]: 42 µM (inactive) | GI50 [48]: 58.9 µM (inactive) | GI50 [49]: 62.4 µM (inactive) | GI50 [50]: 25.5 µM (inactive) | GI50 [51]: 48.2 µM (inactive) | GI50 [52]: 41.3 µM (inactive) | GI50 [53]: > 100 µM (inactive) | GI50 [54]: > 100 µM (inactive) | GI50 [55]: 77.3 µM (inactive)

NNC(=O)C(O)C(O)C(=O)NN (stereo not given)
GI50 [1]: > 100 µM (inactive) | GI50 [2]: > 100 µM (inactive) | GI50 [3]: > 100 µM (inactive) | GI50 [4]: > 100 µM (inactive) | GI50 [5]: 66.4 µM (inactive) | GI50 [6]: > 100 µM (inactive) | GI50 [7]: > 100 µM (inactive) | GI50 [8]: > 100 µM (inactive) | GI50 [9]: > 100 µM (inactive) | GI50 [10]: > 100 µM (inactive) | GI50 [11]: > 100 µM (inactive) | GI50 [56]: > 100 µM (inactive) | GI50 [12]: > 100 µM (inactive) | GI50 [13]: > 100 µM (inactive) | GI50 [14]: 57.5 µM (inactive) | GI50 [16]: > 100 µM (inactive) | GI50 [17]: > 100 µM (inactive) | GI50 [18]: > 100 µM (inactive) | GI50 [19]: > 100 µM (inactive) | GI50 [20]: > 100 µM (inactive) | GI50 [21]: > 100 µM (inactive) | GI50 [22]: 54.5 µM (inactive) | GI50 [23]: > 100 µM (inactive) | GI50 [24]: > 100 µM (inactive) | GI50 [25]: > 100 µM (inactive) | GI50 [26]: > 100 µM (inactive) | GI50 [27]: > 100 µM (inactive) | GI50 [28]: > 100 µM (inactive) | GI50 [29]: > 100 µM (inactive) | GI50 [30]: 98.4 µM (inactive) | GI50 [31]: > 100 µM (inactive) | GI50 [32]: > 100 µM (inactive) | GI50 [33]: > 100 µM | GI50 [57]: > 100 µM (inactive) | GI50 [34]: > 100 µM (inactive) | GI50 [35]: > 100 µM (inactive) | GI50 [36]: > 100 µM (inactive) | GI50 [37]: 36.1 µM (inactive) | GI50 [38]: > 100 µM (inactive) | GI50 [39]: > 100 µM (inactive) | GI50 [40]: > 100 µM (inactive) | GI50 [41]: > 100 µM (inactive) | GI50 [42]: > 100 µM (inactive) | GI50 [43]: > 100 µM (inactive) | GI50 [44]: > 100 µM (inactive) | GI50 [45]: > 100 µM (inactive) | GI50 [46]: > 100 µM (inactive) | GI50 [47]: > 100 µM (inactive) | GI50 [48]: > 100 µM (inactive) | GI50 [49]: 65.9 µM (inactive) | GI50 [50]: > 100 µM (inactive) | GI50 [51]: 64.3 µM (inactive) | GI50 [52]: 73.3 µM (inactive) | GI50 [53]: > 100 µM (inactive) | GI50 [55]: > 100 µM (inactive)
